We go through two molecules from patent US20240109969A1, “Dosing Regimen for Therapies Comprising Bispecific Anti-EGFR/C-Met Antibodies” (Janssen Biotech, Inc., priority 2022, published 2024).

Entries after “also recorded” stand apart in the source; their conditions may differ.

The target in data set [1] is T1, breast cancer resistance protein (BCRP) (Homo sapiens, UniProt Q9UNQ0).
T1 sequence (Q9UNQ0 1-655): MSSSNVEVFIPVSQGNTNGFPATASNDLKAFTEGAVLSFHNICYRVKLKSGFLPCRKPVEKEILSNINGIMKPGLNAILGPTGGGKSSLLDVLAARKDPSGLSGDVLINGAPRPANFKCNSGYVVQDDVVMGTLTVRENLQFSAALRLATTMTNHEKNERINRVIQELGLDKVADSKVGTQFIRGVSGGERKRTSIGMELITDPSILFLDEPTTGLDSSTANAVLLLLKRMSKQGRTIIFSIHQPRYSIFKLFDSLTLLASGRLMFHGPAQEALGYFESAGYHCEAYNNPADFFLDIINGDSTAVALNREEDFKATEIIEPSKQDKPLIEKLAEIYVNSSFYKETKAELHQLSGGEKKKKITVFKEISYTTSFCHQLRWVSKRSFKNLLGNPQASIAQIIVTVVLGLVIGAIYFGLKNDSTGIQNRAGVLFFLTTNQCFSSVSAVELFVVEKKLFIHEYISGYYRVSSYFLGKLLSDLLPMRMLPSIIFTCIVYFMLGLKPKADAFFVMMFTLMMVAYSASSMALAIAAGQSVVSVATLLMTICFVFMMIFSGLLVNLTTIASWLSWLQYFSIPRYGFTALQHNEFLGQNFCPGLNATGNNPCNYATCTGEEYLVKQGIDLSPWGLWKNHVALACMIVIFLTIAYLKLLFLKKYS
As to conditions: cited from earlier work.

The target in data set [2] is T2, Organic Cation Transporter 1 (OCT1) (Homo sapiens, UniProt O15245).
T2 sequence (O15245 1-554): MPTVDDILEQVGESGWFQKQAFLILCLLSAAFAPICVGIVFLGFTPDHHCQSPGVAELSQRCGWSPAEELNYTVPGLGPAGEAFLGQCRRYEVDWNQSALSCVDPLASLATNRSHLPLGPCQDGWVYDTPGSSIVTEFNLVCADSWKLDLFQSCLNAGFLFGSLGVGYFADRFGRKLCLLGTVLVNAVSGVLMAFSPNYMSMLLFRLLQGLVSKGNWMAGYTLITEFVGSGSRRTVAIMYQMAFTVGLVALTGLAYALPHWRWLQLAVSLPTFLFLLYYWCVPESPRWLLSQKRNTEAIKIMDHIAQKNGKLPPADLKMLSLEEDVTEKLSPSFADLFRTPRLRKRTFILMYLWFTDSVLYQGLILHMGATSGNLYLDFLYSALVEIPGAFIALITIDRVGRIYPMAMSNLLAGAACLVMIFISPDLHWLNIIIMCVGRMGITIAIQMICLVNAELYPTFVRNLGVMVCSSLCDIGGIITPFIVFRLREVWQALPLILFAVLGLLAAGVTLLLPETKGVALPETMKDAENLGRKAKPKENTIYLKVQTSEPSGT
As to conditions: cited from earlier work.

The target of a further data set is P-glycoprotein (P-gp) (Homo sapiens, UniProt P08183). Conditions: cited from earlier work.
For data set [3], the target named is T3, multidrug resistance protein 4 (MRP4) (Homo sapiens, UniProt O15439).
T3 sequence (O15439 1-1325): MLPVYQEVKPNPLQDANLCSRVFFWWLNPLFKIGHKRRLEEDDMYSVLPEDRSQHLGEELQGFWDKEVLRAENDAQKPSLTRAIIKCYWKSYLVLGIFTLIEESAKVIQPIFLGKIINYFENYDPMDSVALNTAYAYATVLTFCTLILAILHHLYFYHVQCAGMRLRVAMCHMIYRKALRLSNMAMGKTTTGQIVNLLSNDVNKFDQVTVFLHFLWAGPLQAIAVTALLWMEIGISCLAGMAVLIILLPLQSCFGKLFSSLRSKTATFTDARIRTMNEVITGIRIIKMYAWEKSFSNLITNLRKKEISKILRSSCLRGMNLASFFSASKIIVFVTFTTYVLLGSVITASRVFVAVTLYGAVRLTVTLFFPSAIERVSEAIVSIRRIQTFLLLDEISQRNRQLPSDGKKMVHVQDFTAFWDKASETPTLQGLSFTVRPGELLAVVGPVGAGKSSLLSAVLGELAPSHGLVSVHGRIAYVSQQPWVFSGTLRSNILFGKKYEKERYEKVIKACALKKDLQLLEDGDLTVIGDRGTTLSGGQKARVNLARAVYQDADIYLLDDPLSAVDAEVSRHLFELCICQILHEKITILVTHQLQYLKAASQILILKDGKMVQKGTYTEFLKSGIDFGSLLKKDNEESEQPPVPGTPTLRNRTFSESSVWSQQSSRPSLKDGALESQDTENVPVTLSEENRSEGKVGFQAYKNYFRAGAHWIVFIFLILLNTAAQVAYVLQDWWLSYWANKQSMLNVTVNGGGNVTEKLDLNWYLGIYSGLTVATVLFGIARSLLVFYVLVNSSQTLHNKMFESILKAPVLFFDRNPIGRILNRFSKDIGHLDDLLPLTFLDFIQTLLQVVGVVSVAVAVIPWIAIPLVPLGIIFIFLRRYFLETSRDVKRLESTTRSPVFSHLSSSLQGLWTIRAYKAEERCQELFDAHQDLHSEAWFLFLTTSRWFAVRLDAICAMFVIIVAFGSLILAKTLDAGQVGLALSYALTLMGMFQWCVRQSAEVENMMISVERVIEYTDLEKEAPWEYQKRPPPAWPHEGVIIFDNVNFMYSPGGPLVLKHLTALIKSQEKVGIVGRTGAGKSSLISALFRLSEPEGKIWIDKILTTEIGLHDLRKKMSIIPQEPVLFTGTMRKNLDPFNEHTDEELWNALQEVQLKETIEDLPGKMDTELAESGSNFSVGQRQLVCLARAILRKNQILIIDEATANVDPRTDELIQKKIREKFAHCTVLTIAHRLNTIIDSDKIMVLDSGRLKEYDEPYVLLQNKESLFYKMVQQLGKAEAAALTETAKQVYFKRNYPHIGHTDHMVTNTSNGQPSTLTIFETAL
As to conditions: cited from earlier work.

P-glycoprotein (P-gp), sequence (P08183 whole entry): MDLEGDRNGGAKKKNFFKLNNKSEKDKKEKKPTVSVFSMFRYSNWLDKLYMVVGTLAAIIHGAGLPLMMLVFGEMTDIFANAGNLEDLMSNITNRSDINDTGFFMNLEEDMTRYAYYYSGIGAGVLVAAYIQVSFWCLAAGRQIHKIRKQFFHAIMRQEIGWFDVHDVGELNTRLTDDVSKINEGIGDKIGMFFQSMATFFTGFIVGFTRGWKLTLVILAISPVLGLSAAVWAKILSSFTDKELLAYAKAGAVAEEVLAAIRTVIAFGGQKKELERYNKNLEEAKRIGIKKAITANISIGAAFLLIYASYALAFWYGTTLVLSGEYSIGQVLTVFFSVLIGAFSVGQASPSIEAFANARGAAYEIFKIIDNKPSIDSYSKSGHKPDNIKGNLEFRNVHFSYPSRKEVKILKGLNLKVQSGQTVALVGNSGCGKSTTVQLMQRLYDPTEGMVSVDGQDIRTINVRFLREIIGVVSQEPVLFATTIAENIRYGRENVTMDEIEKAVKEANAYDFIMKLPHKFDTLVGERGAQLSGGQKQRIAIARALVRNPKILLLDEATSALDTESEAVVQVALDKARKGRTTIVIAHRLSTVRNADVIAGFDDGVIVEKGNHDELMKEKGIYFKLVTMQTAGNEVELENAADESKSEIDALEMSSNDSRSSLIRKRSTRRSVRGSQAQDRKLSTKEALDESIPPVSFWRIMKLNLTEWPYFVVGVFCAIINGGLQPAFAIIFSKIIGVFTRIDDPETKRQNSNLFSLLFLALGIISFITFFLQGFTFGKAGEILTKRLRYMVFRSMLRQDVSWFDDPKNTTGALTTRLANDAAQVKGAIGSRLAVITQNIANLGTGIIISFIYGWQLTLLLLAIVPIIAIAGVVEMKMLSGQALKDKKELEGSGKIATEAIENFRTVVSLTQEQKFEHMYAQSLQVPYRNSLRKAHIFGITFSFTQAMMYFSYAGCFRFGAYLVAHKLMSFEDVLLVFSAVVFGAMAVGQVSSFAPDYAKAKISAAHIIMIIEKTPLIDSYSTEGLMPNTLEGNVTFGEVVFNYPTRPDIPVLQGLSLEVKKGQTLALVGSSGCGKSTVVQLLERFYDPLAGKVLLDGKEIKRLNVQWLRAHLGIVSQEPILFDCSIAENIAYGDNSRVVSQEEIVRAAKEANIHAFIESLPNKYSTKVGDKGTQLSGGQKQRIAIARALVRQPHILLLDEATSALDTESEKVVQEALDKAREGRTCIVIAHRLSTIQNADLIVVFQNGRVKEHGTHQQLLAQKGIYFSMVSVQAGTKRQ

In the case of `C=CC(=O)Nc1cc(Nc2nccc(-n3cc(CN(C)C)c(-c4ccccc4)n3)n2)c(OC)cc1N1CCOCC1` [Lazertinib, N-(5-(4-(4-((dimethylamino)methyl)-3-phenyl-1H-pyrazol-1-yl)pyrimidin-2-ylamino)-4-methoxy-2-morpholinophenyl)acrylamide], the “inhibition of BCRP” value in data set [1] is listed as “inhibitor”. Besides, in data set [2], the “inhibition of OCT1” value is given as “inhibitor”. Besides, the “inhibition of P-gp” value at P-glycoprotein (P-gp) is given as “inhibitor”. The “inhibition of MRP4” value in data set [3] is “inhibitor”.

As to amivantamab, the “impact of chemotherapy on amivantamab exposure” value (preliminary cycle 1 PK data (n=9), FIG. 3A-C) is recorded as “no impact; also recorded: not impacted”. The “amivantamab trough concentration / exposure, Q3W (21-day cycle) versus monotherapy Q2W (28-day cycle, 1050/1400 mg)” value (preliminary, FIG. 4A-B) is given as “Similar”.
